Results: PMC6982547 (Leukemia & lymphoma, 2019)
Like-named read-outs stand apart in the source and are kept apart here.

How the values were obtained:
[1] = system: patients with relapsed/refractory lymphoid malignancies; assay: Phase 1 safety and tolerability: DLTs, MTD/RP2D, adverse events; assay type: in vivo, human
[2] = human, in vivo
[3] = previously published data; cited from earlier work
follicular lymphoma = settings: single agent, two phase 2 studies; cited from earlier work
clinical = settings: human, in vivo; for AUC: AUC0-tau; for half-life: t½
[4] = Alisertib pharmacokinetics in plasma; assay type: in vivo, human; settings: Schedule I, vorinostat 200 mg, alisertib 30 mg, day 7, N=1
[5] = cited from earlier work

## O=C(CCCCCCC(=O)Nc1ccccc1)NO [Vorinostat]
[1]; BID, with 20 mg alisertib BID, intermittent dosing Schedule II
  MTD of the combination, vorinostat dose: 200 mg
[1]; bid, intermittent schedule
  recommended phase 2 dose (RP2D) of the combination, vorinostat dose: 200 mg
[2]; 30 mg
  t½: 2.38 (0.97) h
[2]; 200 mg
  AUC0-tau: 1.10 (0.44) μg/mL•h
[3]
  clearance: 271 L/h
Follicular lymphoma
  overall response rate: 47-49%
clinical; 20 mg
  AUC: 1030 ng·h/mL
  Cmax: 318 ng/mL
  Tmax: 2.25 h
  half-life: 130 min
clinical; 30 mg
  AUC: 1850 ng·h/mL
  Cmax: 560 ng/mL
  Tmax: 2.42 h
clinical; 40 mg
  AUC: 956 ng·h/mL
  Cmax: 335 ng/mL
  Tmax: 0.98 h
  half-life: 139 min
clinical; 200 mg
  AUC: 1030 ng·h/mL
  Cmax: 391 ng/mL
  half-life: 131 min
clinical
  half-life: 138 min

## COc1cc(Nc2ncc3c(n2)-c2ccc(Cl)cc2C(c2c(F)cccc2OC)=NC3)ccc1C(=O)O [Alisertib]
[4]
  Cl/F: 1.68 L/h
[1]; BID, with 200 mg vorinostat BID, intermittent dosing Schedule II
  MTD of the combination, alisertib dose: 20 mg
[1]; bid, intermittent schedule
  recommended phase 2 dose (RP2D) of the combination, alisertib dose: 20 mg
[5]; previous reports
  half-life: 14.9 h
[5]; previously published population estimate
  apparent clearance: 4.25 L/h
